From patent publication US20150329558A1, “FUSED HETEROCYCLIC COMPOUNDS AS ION CHANNEL MODULATORS” (Gilead Sciences, Inc., priority 2011, published 2015)

target: wild-type human cardiac sodium channel, hNav1.5 (late INa) (Homo sapiens, UniProt Q14524); assay: Late INa screening assay (QPatch whole cell patch clamp); format: cell-based; settings: percent block of late INa, compound at 1 μM, 10 μM Tefluthrin, HEK293 hNav1.5; read-out: Late INa 1 μM
Experimental: The late sodium current (Late INa) and peak sodium current (Peak INa) assays are performed on an automated electrophysiology platform, QPatch 16× (Sophion Bioscience, Copenhagen, Denmark), which uses the whole cell patch clamp technique to measure currents through the cell membrane of up to 16 cells at a time. The assay uses an HEK293 (human embryonic kidney) cell line heterologously expressing the wild-type human cardiac sodium channel, hNav1.5, purchased from Millipore (Billerica, Mass.). No beta subunits were coexpressed with the Na channel alpha subunit. Cells are maintained with standard tissue culture procedures and stable channel expression is maintained with 400 μg/mL Geneticin in the culture medium. […] Experiments are carried out at 23-25° C. For both the Late INa and Peak INa assays, series resistance compensation is set to 100% and series resistance and whole-cell compensation are performed automatically. Currents are digitized at 25 kHz and low-pass filtered at 12 kHz and 10 kHz for the late and peak INa assays, respectively. Currents through open sodium channels are automatically recorded and stored in the Sophion Bioscience Oracle database (Sophion Bioscience, Copehagen, Denmark). Analysis is performed using QPatch Assay and database software and data are compiled in Excel. Compound stocks are routinely made by the Gilead Sample Bank in plastic vials to 10 mM in dimethyl sulfoxide (DMSO). In some cases, when compounds are not soluble in DMSO, they are made in 100% ethanol. Stocks are sonicated as necessary. […] The intracellular solution used to perfuse the inside of the cells for both the Late INa and Peak INa assays contains: 120 mM CsF, 20 mM CsCl, 5 mM EGTA, 5 mM HEPES and pH adjusted to 7.4 with CsOH. Compounds are diluted in extracellular solution to 1 μM in glass vials and then transferred to glass well plates before robotic addition to the cells. […] For the Late INa assay, sodium channels are activated every 10 seconds (0.1 Hz) by depolarizing the cell membrane to −20 mV for 250 milliseconds (ms) from a holding potential of −120 mV. In response to a −20 mV voltage step, typical hNav1.5 sodium currents activate rapidly to a peak negative current and then inactivate nearly completely within 3-4 ms. All compounds were tested to determine their activity in blocking the late sodium current. Late INa was generated by adding 10 μM Tefluthrin (pyrethroid) to the extracellular solution while recording Na currents. To confirm the block of late INa observed using the automated screening method, a second late INa enhancer (ATX-II) and the manual patch clamp method were used. ATX-II and tefluthrin occupy distinct, non-overlapping binding sites and modify Na^+ channel function differently to increase late INa. […] For the purposes of the screening, late INa is defined as the mean current between 225 ms and 250 ms after stepping to −20 mV to activate Na channels. […] Results are reported as percent block of late INa.

Sequence of wild-type human cardiac sodium channel, hNav1.5 (late INa) (Q14524 whole entry): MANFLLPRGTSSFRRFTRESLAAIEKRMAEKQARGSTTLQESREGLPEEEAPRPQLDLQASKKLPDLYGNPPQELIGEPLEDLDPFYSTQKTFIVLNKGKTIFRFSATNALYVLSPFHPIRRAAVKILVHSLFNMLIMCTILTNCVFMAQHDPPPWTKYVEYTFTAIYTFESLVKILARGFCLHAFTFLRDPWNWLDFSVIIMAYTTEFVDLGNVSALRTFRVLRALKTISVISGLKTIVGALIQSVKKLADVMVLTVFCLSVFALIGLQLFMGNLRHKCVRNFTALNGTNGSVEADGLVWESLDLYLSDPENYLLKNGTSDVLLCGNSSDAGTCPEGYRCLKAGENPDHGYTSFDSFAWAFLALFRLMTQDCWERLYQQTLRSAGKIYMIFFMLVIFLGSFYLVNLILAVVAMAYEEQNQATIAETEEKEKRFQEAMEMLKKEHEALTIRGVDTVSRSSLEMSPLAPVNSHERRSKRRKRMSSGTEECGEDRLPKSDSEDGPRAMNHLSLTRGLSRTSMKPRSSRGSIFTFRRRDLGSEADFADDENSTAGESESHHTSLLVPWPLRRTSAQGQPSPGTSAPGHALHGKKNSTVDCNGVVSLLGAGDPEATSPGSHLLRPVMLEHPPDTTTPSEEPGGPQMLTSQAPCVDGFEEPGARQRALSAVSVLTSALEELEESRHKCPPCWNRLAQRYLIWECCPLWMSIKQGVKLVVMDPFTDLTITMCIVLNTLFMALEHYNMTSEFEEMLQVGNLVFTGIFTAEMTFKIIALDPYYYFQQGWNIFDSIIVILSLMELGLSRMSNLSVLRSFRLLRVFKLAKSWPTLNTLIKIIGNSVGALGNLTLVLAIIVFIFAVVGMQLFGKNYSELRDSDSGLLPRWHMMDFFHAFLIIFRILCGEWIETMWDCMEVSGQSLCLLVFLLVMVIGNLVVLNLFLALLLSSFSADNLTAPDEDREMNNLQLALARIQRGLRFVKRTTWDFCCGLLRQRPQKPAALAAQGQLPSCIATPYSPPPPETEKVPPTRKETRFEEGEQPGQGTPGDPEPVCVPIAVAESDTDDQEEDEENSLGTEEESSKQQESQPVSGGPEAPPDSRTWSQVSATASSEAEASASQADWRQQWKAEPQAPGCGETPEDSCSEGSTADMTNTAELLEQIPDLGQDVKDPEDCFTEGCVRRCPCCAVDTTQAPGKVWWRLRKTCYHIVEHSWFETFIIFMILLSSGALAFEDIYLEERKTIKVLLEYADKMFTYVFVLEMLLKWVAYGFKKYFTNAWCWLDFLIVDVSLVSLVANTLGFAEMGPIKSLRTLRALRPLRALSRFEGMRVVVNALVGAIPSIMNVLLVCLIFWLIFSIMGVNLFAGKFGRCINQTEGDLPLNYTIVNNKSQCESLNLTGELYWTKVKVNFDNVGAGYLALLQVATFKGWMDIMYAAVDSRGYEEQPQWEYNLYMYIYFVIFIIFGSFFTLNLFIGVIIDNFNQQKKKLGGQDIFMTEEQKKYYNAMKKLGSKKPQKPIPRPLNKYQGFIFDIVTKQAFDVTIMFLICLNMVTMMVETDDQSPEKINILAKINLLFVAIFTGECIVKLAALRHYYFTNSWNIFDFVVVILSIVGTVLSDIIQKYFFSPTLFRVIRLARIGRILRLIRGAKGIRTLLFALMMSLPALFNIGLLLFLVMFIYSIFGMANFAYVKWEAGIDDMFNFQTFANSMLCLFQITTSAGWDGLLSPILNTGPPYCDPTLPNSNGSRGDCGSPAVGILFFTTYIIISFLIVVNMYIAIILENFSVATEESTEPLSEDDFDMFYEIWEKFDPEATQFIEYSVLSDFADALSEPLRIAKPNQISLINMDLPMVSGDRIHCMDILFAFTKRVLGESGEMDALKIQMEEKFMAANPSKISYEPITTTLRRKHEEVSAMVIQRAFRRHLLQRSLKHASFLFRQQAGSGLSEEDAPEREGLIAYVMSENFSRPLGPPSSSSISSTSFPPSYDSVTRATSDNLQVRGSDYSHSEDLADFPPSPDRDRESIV

Compound	inhibition at 1 µM [%]
Cc1nc(Cn2nnc3ccc(-c4ccc(OCC(F)(F)F)nc4)cc3c2=O)no1 [Compound V-2, 3-((5-methyl-1,2,4-oxadiazol-3-yl)methyl)-6-(6-(2,2,2-trifluoroethoxy)pyridin-3-yl)benzo[d][1,2,3]triazin-4(3H)-one]	17
O=c1c2cc(-c3ccc(C(F)(F)F)nc3)ccc2nnn1CCOc1ncccn1 [Compound V-11, 3-(2-(pyrimidin-2-yloxy)ethyl)-6-(6-(trifluoromethyl)pyridin-3-yl)benzo[d][1,2,3]triazin-4(3H)-one]	22
O=c1c2cc(-c3ccc(OC(F)(F)F)cc3)ccc2nnn1Cc1cc(-c2ccccc2)no1 [II-10, 3-((3-phenylisoxazol-5-yl)methyl)-6-(4-(trifluoromethoxy)phenyl)benzo[d][1,2,3]triazin-4(3H)-one]	21
O=c1c2cc(-c3ccc(OC(F)(F)F)cc3)ccc2nnn1Cc1nc(Cc2ccccc2)no1 [II-12, 3-((3-benzyl-1,2,4-oxadiazol-5-yl)methyl)-6-(4-(trifluoromethoxy)phenyl)benzo[d][1,2,3]triazin-4(3H)-one]	21
O=c1c2cc(-c3ccc(OC(F)(F)F)cc3)ccc2nnn1Cn1nnnc1-c1ccccc1 [II-21, 3-((5-phenyl-1H-tetrazol-1-yl)methyl)-6-(4-(trifluoromethoxy)phenyl)benzo[d][1,2,3]triazin-4(3H)-one]	70
O=c1c2cc(-c3ccc(OC(F)(F)F)cc3)ccc2nnn1C1CC1 [II-22, 3-cyclopropyl-6-(4-(trifluoromethoxy)phenyl)benzo[d][1,2,3]triazin-4(3H)-one]	21
Cc1nc(Cn2nnc3ccc(-c4ccc(OC(F)(F)F)cc4)cc3c2=O)oc1C [II-23, 3-((4,5-dimethyloxazol-2-yl)methyl)-6-(4-(trifluoromethoxy)phenyl)benzo[d][1,2,3]triazin-4(3H)-one]	23
O=c1c2cc(-c3ccc(OC(F)(F)F)cc3)ccc2nnn1Cn1nc2ccccc2n1 [II-28, 3-((2H-benzo[d][1,2,3]triazol-2-yl)methyl)-6-(4-(trifluoromethoxy)phenyl)benzo[d][1,2,3]triazin-4(3H)-one]	19
N#CC1(n2nnc3ccc(-c4ccc(OC(F)(F)F)cc4)cc3c2=O)CC1 [II-33, 1-(4-oxo-6-(4-(trifluoromethoxy)phenyl)benzo[d][1,2,3]triazin-3 (4H)-yl)cyclopropanecarbonitrile]	26
O=c1c2cc(-c3ccc(OC(F)(F)F)cc3)ccc2nnn1C1CCN(c2ncccn2)CC1 [II-39, 3-(1-(pyrimidin-2-yl)piperidin-4-yl)-6-(4-(trifluoromethoxy)phenyl)benzo[d][1,2,3]triazin-4(3H)-one]	16
O=c1c2cc(-c3ccc(OC(F)(F)F)cc3)ccc2nnn1Cc1ccccc1 [II-42, 3-benzyl-6-(4-(trifluoromethoxy)phenyl)benzo[d][1,2,3]triazin-4(3H)-one]	23
O=c1c2cc(-c3ccc(OC(F)(F)F)cc3)ccc2nnn1OCc1ncccn1 [II-56, 3-(pyrimidin-2-ylmethoxy)-6-(4-(trifluoromethoxy)phenyl)benzo[d][1,2,3]triazin-4(3H)-one]	22
O=c1c2cc(-c3ccc(OC(F)(F)F)cc3)ccc2nnn1CC1(Cn2ccnc2)CC1 [II-58, 3-((1-((1H-imidazol-1-yl)methyl)cyclopropyl)methyl)-6-(4-(trifluoromethoxy)phenyl)benzo[d][1,2,3]triazin-4(3H)-one]	25
O=c1c2cc(-c3ccc(OC(F)(F)F)cc3)ccc2nnn1OCc1cccnc1 [II-59, 3-(pyridin-3-ylmethoxy)-6-(4-(trifluoromethoxy)phenyl)benzo[d][1,2,3]triazin-4(3H)-one]	22
O=C(Cn1nnc2ccc(-c3ccc(Oc4ccc(Cl)cc4)cc3)cc2c1=O)N1CCN(c2ncccn2)CC1 [II-65, 6-(4-(4-chlorophenoxyl)phenyl)-3-(2-oxo-2-(4-(pyrimidin-2-yl)piperazin-1-yl)ethyl)benzo[d][1,2,3]triazin-4(3H)-one]	19
CC(c1nc(C2CC2)no1)n1nnc2ccc(-c3ccc(OC(F)(F)F)cc3)cc2c1=O (centres unmarked) [II-79, 3-(1-(3-cyclopropyl-1,2,4-oxadiazol-5-yl)ethyl)-6-(4-(trifluoromethoxy)phenyl)benzo[d][1,2,3]triazin-4(3H)-one]	54
O=c1c2cc(-c3ccc(OC(F)(F)F)cc3)ccc2cnn1Cc1ccccc1 [III-6, 2-benzyl-7-(4-(trifluoromethoxy)phenyl)phthalazin-1(2H)-one]	18
O=c1c2cc(-c3ccc(OC(F)(F)F)cc3)ccc2cnn1CCc1ccccc1 [III-8, 2-phenethyl-7-(4-(trifluoromethoxy)phenyl)phthalazin-1(2H)-one]	19
Cc1nonc1Cn1ncc2ccc(-c3ccc(OC(F)(F)F)cc3)cc2c1=O [III-11, 2-((4-methyl-1,2,5-oxadiazol-3-yl)methyl)-7-(4-(trifluoromethoxy)phenyl)phthalazin-1 (2H)-one]	30
N#Cc1cccc(Cn2ncc3ccc(-c4ccc(OC(F)(F)F)cc4)cc3c2=O)n1 [III-12, 6-((1-oxo-7-(4-(trifluoromethoxy)phenyl)phthalazin-2(1H)-yl)methyl)picolinonitrile]	21
Cn1c(CCn2ncc3ccc(-c4ccc(OC(F)(F)F)cc4)cc3c2=O)nc2ccccc21 [III-25, 2-(2-(1-methyl-1H-benzo[d]imidazol-2-yl)ethyl)-7-(4-(trifluoromethoxy)phenyl)phthalazin-1 (2H)-one]	16
O=c1c2cc(-c3ccc(OC(F)(F)F)cc3)ccc2cnn1CCn1cncn1 [III-26, 2-(2-(1H-1,2,4-triazol-1-yl)ethyl)-7-(4-(trifluoromethoxy)phenyl)phthalazin-1 (2H)-one]	26
O=c1c2cc(-c3ccc(OC(F)(F)F)cc3)ccc2cnn1CCn1cc(Br)cn1 [III-31, 2-(2-(4-bromo-1H-pyrazol-1-yl)ethyl)-7-(4-(trifluoromethoxy)phenyl)phthalazin-1 (2H)-one]	27
O=c1c2cc(-c3ccc(OC(F)(F)F)cc3)ccc2cnn1Cc1cc(-c2ccccn2)on1 [III-41, 2-((5-(pyridin-2-yl)isoxazol-3-yl)methyl)-7-(4-(trifluoromethoxy)phenyl)phthalazin-1 (2H)-one]	24
O=C1c2cc(C#Cc3ccc(C(F)(F)F)cc3)ccc2CCN1Cc1ncccn1 [IX-4]	20
O=C1c2cc(C#Cc3ccc(OC(F)(F)F)cc3)ccc2CCN1Cc1ncccn1 [IX-5]	20
O=C(c1ncccn1)N1CCc2ccc(-c3ccc(C(F)(F)F)cc3F)cc2C1 [IX-22, (7-(2-fluoro-4-(trifluoromethyl)phenyl)-3,4-dihydroisoquinolin-2(1H)-yl)(pyrimidin-2-yl)methanone]	29
O=C(c1ncccn1)N1CCc2ccc(-c3ccc(Cl)cc3F)cc2C1 [IX-23, (7-(4-chloro-2-fluorophenyl)-3,4-dihydroisoquinolin-2(1H)-yl)(pyrimidin-2-yl)methanone]	27
O=C(c1ncccn1)N1CCc2ccc(-c3ccc(Cl)c(F)c3)cc2C1 [IX-24, (7-(4-chloro-3-fluorophenyl)-3,4-dihydroisoquinolin-2(1H)-yl)(pyrimidin-2-yl)methanone]	19
